Assay results as given in US20170216295A1, “CCR9 ANTAGONIST COMPOUNDS” (Merck Sharp & Dohme Corp., priority 2014, published 2017).
Values after ≈ are worked out from the molar mass of the structure shown. Like-named read-outs stand apart in the source and are kept apart here.

Assays:
[1] = In-vitro precipitation time in simulated gastric and intestinal fluids; type: physicochemical; conditions: oral dosing solution
Description: Dosing solutions at 1 mg/mL for rat PK studies were prepared using either a pH+co-solvent approach or pH+cosolvent+surfactant approach. The total amounts of cosolvent and surfactant used in the solution formulations ranged from 5-8% v/v and q.s. with pH 9 phosphate buffer. Solutions were assessed for their potential for in-vivo precipitation using an in-vitro dilution test (1:1, 1:4 and 1:9) in simulated gastric and intestinal fluids.

Rat PK (i.v./p.o.) = type: in vivo
Description: Sprague Dawley Rats (n=3) were dosed both intravenously and orally with a solution formulation followed by plasma collection at time points providing sufficient coverage of the absorption, distribution, metabolism and excretion phases of the test article. Test article concentrations at each time point were determined by LC-MS detected bioanalytical analysis. Non-compartmental pharmacokinetic analysis of the intravenous bioanalytical data provided area under the curve, clearance, volume of distribution, and terminal half life parameters while similar analysis of plasma samples from animals dosed orally provided area under the curve, bio-available fraction and oral terminal half life pharmacokinetic parameters.
Rats (n of 3) were dosed both intravenously and orally with the various compounds. Plasma samples were collected at time points chosen to provide sufficient coverage of the absorption, distribution, metabolism and excretion phases of the test compound. LC-MS detected bioanalytical analysis was performed on the plasma samples utilizing a standard curve and quality control samples to provide enough precision and accuracy to determine the concentrations test article for plasma from each time point. Non-compartmental pharmacokinetic analysis of the intravenous bioanalytical data provided area under the curve, clearance, volume of distribution, terminal half life parameters while similar analysis of plasma samples from animals dosed orally provided area under the curve, bio-available fraction and oral terminal half life pharmacokinetic parameters (see FIG. 1).

CCR9 receptor = molecular target: T1, CCR9 receptor (Homo sapiens, UniProt P51686); experiment: Calcium mobilization (Ca FLIPR) assay, antagonist mode vs TECK; type: cell-based; conditions: LipE = pIC50-clogD
T1 sequence (P51686 1-369): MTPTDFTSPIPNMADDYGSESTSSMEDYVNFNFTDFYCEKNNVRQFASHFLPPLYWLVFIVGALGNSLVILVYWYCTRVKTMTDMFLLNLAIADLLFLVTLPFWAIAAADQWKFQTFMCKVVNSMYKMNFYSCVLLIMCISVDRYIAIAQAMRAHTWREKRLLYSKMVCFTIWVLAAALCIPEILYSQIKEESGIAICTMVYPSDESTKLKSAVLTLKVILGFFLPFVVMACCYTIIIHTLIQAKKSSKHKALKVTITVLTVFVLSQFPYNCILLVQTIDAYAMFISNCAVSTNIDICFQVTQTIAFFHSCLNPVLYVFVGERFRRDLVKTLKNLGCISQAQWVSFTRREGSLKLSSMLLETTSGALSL
Description: Calcium Mobilization Assay:
Cells expressing CCR9 receptor (MultiSpan, Hayward, Calif.) were seeded in 384-well plates. Ca^2+ assays were conducted after overnight culture in the plates according to the manufacturer's protocol using Screen Quest™ Fluo-8 no wash kit (AAT Bioquest, Sunnyvale, Calif.). Dye loading buffer was added to the cells and incubated for 45 minutes at 37° C. followed by 15 minutes incubation at room temperature. Compounds in the presence of 0.1% DMSO were applied to the cells during calcium flux measurement. Calcium flux was monitored for 90 seconds with compound application after 10 seconds. For antagonist mode, cells were preincubated with the compound at room temperature for 10 minutes before the application of the control agonist TECK (Preprotech, Rocky Hill, N.J.) at EC80 concentration of 0.01 uM obtained from dose-response curves of control agonist.

[2] = Rat microsome protein binding (equilibrium dialysis); type: in vitro ADME; conditions: rat liver microsomes, 1 mg/mL rat hepatic microsomes, read-out: Rat Microsomal Binding Fu
Description: (§1) Plasma and Microsome Protein Binding:
(§2) Protein binding was measured via high throughput equilibrium dialysis with the HTDialysis device fitted with a 12,000 to 14,000 Da molecular weight cutoff membrane. Rat plasma or 1 mg/mL rat hepatic microsomes spiked with test article were dialyzed vs. phosphate buffer for 6 hours. Aliquots were removed from both sides of the membrane and diluted with equal volumes of the opposite matrix. Following protein precipitation and centrifugation, the resultant matrix matched supernatants were analyzed by LC-MS to compare the plasma or microsome dialysate test article signal to the buffer signal. Test article stability was monitored during the course of the assay.

[3] = pH-solubility (high-throughput, buffers); type: physicochemical; conditions: aqueous with cosolvent or surfactant or cyclodextrin, kinetic from dmso stock
Description: Solubility of representative acidic triazoles was measured in 3 buffer systems (pH 4, 7.4 and 9) using an in-house high-throughput solubility method. A stock solution of test article was prepared in DMA (20 mg/ml) and spiked into each buffer system (20× dilution) to target 1 mg/ml concentration. The samples were vortexed briefly and equilibrated for 24 hr at RT. Samples were then filtered using 0.22u PVDF membrane filters and analyzed for drug concentration using HPLC.

[4] = Rat liver microsome clearance; type: in vitro ADME; conditions: rat liver microsomes; 2 μM, 1 mg/mL rat hepatic microsomes, NADPH; read-out: Rat Microsome In Vitro CLint
Description: Microsomal In-Vitro Clearance:
The test articles (2 μM) were incubated for one hour in 1 mg/mL rat hepatic microsomes with 2 mM NADPH at 37° C. with aliquots removed at t=0, 15, 30 and 60 minutes. Incubations were terminated at the specified times by protein precipitation, and samples were centrifuged. Resultant supernants were analyzed by LC-MS/MS for the amount of incubated compound remaining, and the half life (t1/2) and intrinsic microsomal clearance rate (CLint) of each compound was calculated.

[5] = Rat plasma protein binding (equilibrium dialysis); type: in vitro ADME; conditions: read-out: Rat Plasma Protein Binding (PPB) Fu
Description: as §1, §2

With `Cc1nc2ncnn2c(O)c1Cc1ccc(C(C)(C)C)cc1` [Compound 6] the “In-vitro Precipitation Time (Visual assessment), SGF” value ([1]; simulated gastric fluid) was “SGF: 0 min”, the “In-vitro Precipitation Time (Visual assessment), SIF” value ([1]; simulated intestinal fluid) was “SIF: 120 min” and the “Rat In vivo CL as % Hepatic Blood Flow” value (Rat PK (i.v./p.o.)) was 44%. For the same compound, the clearance (Rat PK (i.v./p.o.); Sprague Dawley, plasma, iv, read-out: Rat In vivo CL) was 24 mL/min/kg, the bioavailability (Rat PK (i.v./p.o.); Sprague Dawley, plasma, oral, 6: co-solvent (pH 9), 39, 40, 42: co-solvent + surfactant (pH 9), read-out: % F (p.o.)) was 12% and the “Oral AUC/D” value (Rat PK (i.v./p.o.); oral, formulation as in Table 6) was 0.08 ug · hr/ml/(mg/kg). The LipE (CCR9 receptor) was 2.4, the fraction unbound at 6 h [2] was 0.703 and the solubility at 24 h ([3]; pH 4 buffer, pH 4 (Table 6), read-out: Solubility pH 4) was 13 µg/mL (≈ 43.9 µM). The solubility at 24 h ([3]; pH 7.4 buffer, pH 7.4 (Table 6), read-out: Solubility pH 7.4) was 140 µg/mL (≈ 472 µM), the solubility at 24 h ([3]; pH 9 buffer, pH 9 (Table 6), read-out: Solubility pH 9) was 1000 µg/mL (≈ 3370 µM) and the CLint scaled at 2 μM [4] was 717 mL/min/kg. It also gave a fraction unbound at 6 h [5] of 0.01.
